The values that follow come from patent US20190233884A1 (University of Southern California, priority 2016, published 2019).

For this data set, the system named is patients with refractory metastatic colorectal cancer (mCRC). As to the kind of experiment: TAS-102-related toxicity (neutropenia, leukopenia, anemia, anorexia, nausea, diarrhea; CTCAE grade) in training/evaluation and testing/validation cohorts, association with SNPs. In kind it is in vivo, human. The settings on record: for frequency of Gr3≤ neutropenia: evaluation cohort; for incidence of Gr3≤ neutropenia: validation cohort. The text has this:
Such effects include but are not limited to febrile neutropenia, leukopenia, stomatitis, neutropenia, hand-foot syndrome, cardiac ischemia, thrombocytopenia, increase in alanine aminotransferase level, increase in aspartate aminotransferase level, increase in total bilirubin, increase in alkaline phosphatase level, increase in creatinine level, anemia, anorexia, nausea, vomiting, decreased appetite, fatigue, abdominal pain, fever, asthenia, and diarrhea. […] “Subchronic” toxicity is the ability of a drug substance to cause harmful or adverse effects for […] but less than the lifetime of the exposed organism. “Chronic” toxicity is the ability of a drug substance or combination therapy to cause harmful effects over an extended period, usually upon repeated or continuous exposure, sometimes lasting for the entire life of the exposed organism. Adverse events are classified and graded by severity. Grade 1 adverse events: mild; asymptomatic or mild symptoms; clinical or diagnostic observations only; intervention not indicated. Grade 2 adverse events: moderate; minimal, local or noninvasive intervention indicated; limiting age-appropriate instrumental activities of daily living (ADL). Grade 3 adverse events: severe or medically significant but not immediately life-threatening; hospitalization or prolongation of hospitalization indicated; disabling; limiting self care activities of daily living. Grade 4 adverse events: life-threatening consequences; urgent intervention indicated. Grade 5 adverse event: death related to AE (Department of Health and Human Services, National Institutes of Health, National Cancer Institute. Common terminology criteria for adverse events (CTCAE) v4.03. 2010).
The primary endpoint in this study was progression-free survival (PFS), and the secondary endpoints were overall survival (OS) and disease control rate (DCR). PFS was calculated from the date of starting treatment to the first observation of disease progression or death from any cause. If a patient had no disease progression or death, PFS was censored at the date of last follow up. OS was calculated from the date of starting treatment until the date of death from any cause or the date of the last follow-up, at which point OS was censored. The disease control rate (DCR) was defined as the proportion of patients who achieved a stable disease (SD) or […] according to RECISTv1.1. Chi-square test was used to examine the difference in baseline patient characteristics among the three cohorts. Allelic distribution of all SNPs by ethnicity for deviation from Hardy-Weinberg equilibrium and the allelic frequencies of SNPs were tested using the Chi-square tests with one degree of freedom. The associations between candidate SNPs and disease control, and toxicities were examined using contingency tables and Fisher's exact test. The associations of SNPs with PFS and OS were analysed using Kaplan-Meier curves and the log-rank test. Because the true mode of inheritance of candidate SNPs was not established yet, a codominant or dominant genetic model if appropriate was considered.
All patients underwent the treatment in salvage-line setting. […] In all patients, adverse events were graded according to the Common Terminology Criteria for Adverse Events, version 4.0.
The primary endpoint in this study was progression-free survival (PFS), and the secondary endpoints were overall survival (OS) and disease control rate (DCR). […] Data of patients without disease progression or death were censored at the date of last follow up. OS was calculated from the date of starting treatment until the date of death from any cause. In patients who were lost to follow-up, data were censored at the date of last follow up. The disease control rate (DCR) was defined as the proportion of patients who achieved a stable disease (SD) or […] according to RECIST v1.1.

With Trifluridine/tipiracil [TAS-102], the “frequency of Gr3≤ neutropenia” value (ATM rs609429 C/C (n=4/14)) stood at 29% and the “frequency of Gr3≤ neutropenia” value (ATM rs609429 any G allele (n=16/38)) stood at 42%. Moreover, where the note is “training cohort”, the “incidence of grade 2≤ neutropenia” value came to 61.5%. In addition, where the note is “training cohort”, the “incidence of grade 3≤ neutropenia” value stood at 38.5%. Besides, the “frequency of Gr2< neutropenia” value is recorded as 44% (training cohort, hENT1 rs760370 A/A (n=12/27)) and 80% (training cohort, hENT1 rs760370 any G allele (n=20/25)). Also, under “training cohort, share of treatment delays (22/24)”, the “treatment delay caused by neutropenia” value turned out to be 91.8%. The “incidence of Gr3≤ neutropenia” value is 26% (ATM rs609429 C/C (n=13/51)) and 44% (ATM rs609429 any G allele (n=34/78)).
